Source: patent publication EP3222276B1, “PHARMACEUTICAL COMPOSITION FOR TREATING CANCER AND BIOMARKER FOR DRUG SCREENING” (National Defense Medical Center, priority 2014, dated 2016)

Legend:
ACHN cells [1] = test: SRB assay of cell survival / growth inhibition; type: cell-based, Human; conditions: 5 µM sorafenib or 10 µM GW5074 alone, or both combined (GW5074 30 minutes before sorafenib); 24 hours
Method: Human renal carcinoma (ACHN) cells were cultured in Eagle MEM (Minimum Essential Medium) with 10% FBS (Fetal Bovine Serum) and 1% penicillin/streptomycin. Sulforhodamine B (SRB) is a negative […] with a sulfonic acid group and binds to basic amino acids of intracellular proteins in weak acidic conditions. The SRB […] was extracted from cells using weak alkaline solution and then subjected to absorbance measurement. The amount of intracellular proteins, which is an indicator for cell survival, can be calculated from the amount of SRB.

ACHN cells [2] = test: ACHN xenograft in immunodeficient mice, tumor volume; type: in vivo; conditions: 5 mg/kg sorafenib oral, 10 mg/kg GW5074 s.c., alone or combined; once a day for three weeks; n=8
Method: Six-week old immnunodeficient male mice (BALB/cAnN.Cg-Foxn1^nu/CrlNarl) with an average weight of 20 grams were xenografted with 1x10^7 ACHN cells to the right by […]. The mice were maintained in a specific pathogen-free (SPF) environment. The size of tumor was measured using a digital caliper twice a week and tumor volume was calculated by the equation of length^∗width^∗height^∗0.5. […] A total of four groups were included in the experiment: a control group which received only vehicle (DMSO), […], 25 mg/kg GW5074, […], respectively, with 8 mice in each group.

ACHN cells [3] = test: Annexin V-FITC / propidium iodide flow cytometry for apoptosis or necrosis; type: cell-based, Human; conditions: 5 µM sorafenib, 10 µM GW5074 or both; 24 hours; n=4
Method: (§1) The combination therapy of sorafenib and GW5074 induces cell necrosis through the dephosphorylation of the death-associated DAPK at serine 308 followed by dissociation from proto-oncogene c-Raf. Cells were cultured as described in example 1, washed with phosphate buffered saline (PBS), and stained with the annexin V-FITC and propidium iodide (PI) for 15 minutes. The presence of fluorescent Annexin V as well as propidium iodide (PI) was detected by flow cytometry so as to determine whether the cell death is caused by apoptosis or necrosis. The expression of c-Raf and DAPK as well as the phosphorylation level of DAPK were examined by Western blot and immunoprecipitation using antibodies. Anti-DAPK antibodies or non-immune rabbit IgG (IP: immunoglobulin) were included as negative controls, and cell survival was measured by SRB assay, as shown In example 1. In this experiment, ACHN cells were treated separately with DMSO (as a control group), 5 µM sorafenib, 10 µM GW5074, or the combination therapy of 5 µM sorafenib and 10 µM GW5074 for 24 hours.

Luc-ACHN-LL cells = test: Orthotopic metastasis model of renal carcinoma, IVIS photon signal and survival; type: in vivo, mice; conditions: for death within, following injection of cancer cells: 10 mg/kg sorafenib alone or 25 mg/kg GW5074 alone
Method: To simulate clinical phenomenon, we established an orthotopic spontaneous animal model for studying metastasis of renal carcinoma. First, ACHN cells were transfected with the luciferase gene and the resultamt Luc-ACHN transfectants (stable transfectants which express the luciferase) with different expression levels were then selected for in vivo culture in mice by subcutaneous injection. Six-week old and shaved mice were subcutaneously injected with 1×10^7 Luc-ACHN cells In 0.1 ml PBS. Two months after the injection, the mice were sacrificed and their kidneys, livers, regional lymph nodes as well as other organs were collected for assessing tumor cells that were potentially metastatic, which was confirmed by hematoxylin-eosin (H&E) staining. Tumor cell lines that are highly metastatic were dissected in 1 ml PBS into small pieces aseptically and then cultured in MEM media containing 10% FBS (fetal bovine serum) and 1% penicillin/streptomycin following centrifugation. A few days later, monoclonal cell lines were first treated with the trypsin to dissociate the cells and then cultured in vitro. The cells obtained from liver tumor tissues were named ACHN-L. The metastatic potential of various monoclonal cell lines collected from different organs was further analyzed by xenografting these tumor cells to the left kidneys of mice. The xenografted mice were sacrificed and examined 8 weeks after the injection of tumor cells. The tumor growth observed in each organ was investigated through visual examination and histology procedures. The metastatic cells found in the liver were dissected into small pieces aseptically and cultured in vitro. The cells obtained from liver tumor tissues were named ACHN-L (subcutaneous injection) cells and the cells collected from the metastatic lesions after injection of ACHN-L cells to the left kidneys were called ACHN-LL cells. The same procedure using orthotopic xenograft of ACHN-LL cells and liver metastatic cells was repeated twice to select for highly metastatic tumors. The cancer cell line (Luc-ACHN-LL), which is highly metastatic and causes high mortality, was selected. Immunodeficient male mice was injected with 3×10^5 Luc-ACHN-LL cells in 50 µL PBS at the right renal capsule. The in vivo luciferase activity was examined every day for up to three weeks so as to assure that there were no leakage of cancer cells at the kidneys immediately after the injection and to monitor the metastasis of these cancer cells. Two to five minutes before utilizing the IVIS Xenogene system, 75 mg/kg D-Luciferin (Xenogen) in PBS was injected to the retro-orbital sinus of each mouse. […]

pDAPK^S308 = test: Western blot of DAPK S308 phosphorylation in ACHN cells; type: cell-based, Human; conditions: various concentrations, only when provided 30 minutes prior to the combination drugs
Method: as §1

SMILES	growth inhibition of cells (ACHN cells [1])	inhibition effect on xenografted tumor growth (tumor volume) (ACHN cells [2])	average cell necrosis rate (ACHN cells [3])	death within, following injection of cancer cells (Luc-ACHN-LL cells)	inhibition of dephosphorylation of pDAPK^S308 and growth of ACHN cells (pDAPK^S308)	body weight (Luc-ACHN-LL cells; high-dose 60 mg/kg sorafenib)	death within (Luc-ACHN-LL cells; high-dose 60 mg/kg sorafenib)
O=C1Nc2ccc(I)cc2C1=Cc1cc(Br)c(O)c(Br)c1 [GW5074, 3-(3,5-Dibromo-4-hydroxy-benzylidene)-5-iodo-1,3-dihydro-indol-2-one]	no growth inhibition	nearly no inhibition effect	1.35%	≤ 5 weeks			
C=C1[C@@H](O)[C@@H]2O[C@]3(CC[C@H](/C=C/[C@@H](C)[C@@H]4CC(C)=C[C@@]5(O[C@H](C[C@@](C)(O)C(=O)O)CC[C@H]5O)O4)O3)CC[C@H]2O[C@@H]1[C@@H](O)C[C@H](C)[C@H]1O[C@@]2(CCCCO2)CC[C@H]1C [Okadaic acid]					effective		
CNC(=O)c1cc(Oc2ccc(NC(=O)Nc3ccc(Cl)c(C(F)(F)F)c3)cc2)ccn1 [sorafenib]	no growth inhibition	nearly no inhibition effect	0.77%	≤ 8 weeks		loss of weight	≤ 10 weeks
